Experimental data from the NIST ThermoML archive (doi:10.1016/j.fluid.2008.07.018).
Numbers after ± are expanded uncertainties.

Experiments:
[1] = Liquid; for mass density: 298.15 K, 101.33 kPa
[2] = refractive index (Na D-line) (dimensionless); conditions: 298.15 K; 101.33 kPa; Liquid; Standard Abbe refractometry

Row | Compound | mass density [1] | vapor or sublimation pressure ([1]; 424.35 K) | refractive index [2] | vapor or sublimation pressure ([1]; 427.05 K) | vapor or sublimation pressure ([1]; 455.25 K) | vapor or sublimation pressure ([1]; 402.85 K) | vapor or sublimation pressure ([1]; 472.55 K)
1 | CN(C)C=O [dimethylformamide] | 943.9 ± 1.6 kg/m3 | 95.5 ± 3.3 kPa | 1.4219 ± 0.0007 |  |  |  | 
2 | Brc1ccccc1 [bromobenzene] | 1488.1 ± 4.8 kg/m3 |  | 1.5571 ± 0.0007 | 95.5 ± 4 kPa |  |  | 
3 | Nc1ccccc1 [aniline] | 1017.6 ± 3 kg/m3 |  | 1.5836 ± 0.0007 |  | 95.5 ± 4 kPa |  | 
4 | Clc1ccccc1 [chlorobenzene] | 1106.3 ± 3.3 kg/m3 |  | 1.5218 ± 0.0007 |  |  | 95.5 ± 4 kPa | 
5 | CC(=O)c1ccccc1 [acetophenone] | 1023.8 ± 3 kg/m3 |  | 1.5342 ± 0.0007 |  |  |  | 95.5 ± 4 kPa
6 | CC(=O)N(C)C [N,N-dimethylethanamide] | 936.3 ± 2.7 kg/m3 |  | 1.4357 ± 0.0007 |  |  |  | 
